This is an account of results in article PMC4683533, “Discovery of novel INK4C small-molecule inhibitors to promote human and murine hematopoietic stem cell ex vivo expansion” (Scientific Reports, 2015).

The subject of test [1] is human cord blood CD34+ cells (CD34+CD49f+ cells). In words: human cord blood CD34+ cell ex vivo culture and screen. In kind it is cell-based. Here is the method:
Based on our study of murine HSCs, we further tested whether these p18SMIs could expand human cord blood CD34^+ cells in ex vivo culture. […] We cultured human cord blood CD34^+ cells for 7 days in HSCs expansion media in the presence of 200 nM of p18SMIs, and then analyzed the percentage and absolute number of CD34^+CD49f^+ cells by flow cytometry. We screened 40 p18SMIs, of which14 compounds could increase the number of CD34^+CD49f^+ cells compared with the control group (Fig. S6). […] Then we conducted a concentration gradient assay on top three p18SMIs with ED50 less than 10 nM (compounds 22, 40 and 41). […] Only in specific doses could they show their expansion effect on human HSCs (Fig. 4B).
Human cord blood samples were collected from consenting donors according to ethically approved procedures at Tianjin Central Hospital of Gynecology Obstetrics (Tianjin, China), under a protocol approved by the Ethical Committee on Medical Research at the Institute of Hematology. Human CD34^+ cord blood cells were isolated using human CD34 MicroBead Kit (MiltenyiBiotec) according to the manufacturer’s protocol after settling red cells with HES and red cells lysis with ACK Lysis Buffer.
Human CD34^+ cells were cultured in expansion medium consisting of StemSpan SFEM (StemCell Technologies) supplemented with 100 ng/mL human stem cell factor (SCF, PeproTech), 50 ng/mL human thrombopoietin (TPO, PeproTech), 100 ng/mL human FMS-like trysine kinase 3 ligand (Flt3L, PeproTech). Human CD34^+ cells were resuspended in expansion medium (5 × 10^4 cells/mL) before being aliquoted in 96-well plates (Costar, Corning Incorporated). Compounds, all with a final concentration of 200 nM, were dissolved in DMSO and added immediately in cell suspension after plating. The final concentration of DMSO in the control group was the same as in the compounds-treated group. Cells were cultured at 37 °C in 5% CO2. Based on the results of primary screening upon human cells and the results of ED50, we chose three compounds for further experiments. The expansion medium was changed to StemSpan SFEM (StemCell Technologies) supplemented with 100 ng/mL human stem cell factor (SCF, PeproTech), 100 ng/mL human thrombopoietin (TPO, PeproTech), 100 ng/mL human FMS-like trysine kinase 3 ligand (Flt3L, PeproTech) and 100 ng/mL human interleukin-6 (IL-6, PeproTech) for better expansion effect. The incubation condition was consistent with before.
Phenotypes analysis of cultured cells was performed on a BD FACS Array (Becton Dickinson Biosciences) using a combination of the following antibodies: APC anti-CD34 (BD Biosciences), PE anti-CD49f (BD Biosciences). Stained cells were washed once with PBS and then measured and analyzed on an FACS analyzer (FACSArray, BD Biosciences).

The subject of test [2] is c-Kit-enriched mouse BM cells (HSPC, LT-HSCs). The test can be described thus: ex vivo bulk culture of c-Kit-enriched BM cells with flow cytometry phenotyping. It counts as cell-based. The note with it: 5 days culture with cytokines. Here is the method: To investigate the effect of p18SMI compounds on murine HSCs, c-Kit-enriched mouse BM cells were cultured for 5 days with media containing cytokines and the p18SMI compounds. […] Lin^−Sca-1^+(LS) cells were further analyzed using a combination of CD150 and CD48 (SLAM code) biomarkers for HSC identification. CD150^+ CD48^−KSLs (hereafter referred to as SLAM^+) cells are enriched for long term (LT)-HSCs.
HSCs expansion medium consists of BIT9500 (Stem Cell Technologies) supplemented with 50 ng/mL recombinant mouse (rm) SCF, 20 ng/mL FMS-like tyrosine kinase 3 ligand (Flt3L) and 10 ng/mL thrombopoietin (Tpo) (all from PeproTech, Inc.). p18SMI compounds were added where indicated. Bone marrow cells were harvested from C57BL/6 mice and made into a single-cell suspension. After immunomagnetic c-Kit enrichment (cKit-conjugated microbeads [MiltenyiBiotec, Bergisch-Gladbach]), cells were washed and resuspended in HSCs expansion medium. After culture, total nucleated cell counts were obtained, and a fraction of mononuclear cells (MNCs) or whole bone marrow cells were stained for flow cytometry analysis. Frequency of each cell population was determined by independently analyzing more than 5 × 10^5 cells per sample in triplicate.
For stem-cell quantitation, the cultured bone marrow nucleated cells were co-stained with a combination of PE-Cy7 labeled antibodies against mouse CD3, CD4, CD8, B220, Gr-1, Mac-1 and TER-119, anti-Sca-1-PercpCy5.5, anti-CD48-PE and anti-CD150-APC (all from Biolegend). DAPI was used for dead-cell discrimination. Due to the presence of cytokine stem cell factor (SCF), we could not detect the c-Kit marker of those cultured cells. […] Flow cytometry and flow sorting were conducted with a CyAn (DakoCytomation) or a FACSCalibur system (BD Biosciences). FlowJo software Version 7.6.2 (TreeStar) was used for data analysis.
On the technique in general: In flow cytometry, cells or beads pass a laser one at a time.

For the molecule `O=C([O-])c1ccc(S(=O)(=O)NC2CCCCC2)cc1.[Na+]` [Compound 40, sodium 4-(N-cyclohexylsulfamoyl)benzoate], in test [1] (200 nM, 7 days in HSCs expansion media, versus control group), the “increase in the absolute number of CD34+CD49f+ cells” value was over 30%. In addition, the “expansion of human HSCs in concentration gradient assay” value in test [1] (dose response, Fig. 4B) is given as “concentration related”. Further, in test [2], the “increase of absolute number of Lin-Sca-1+ hematopoietic stem/progenitor cells (HSPC)” value came to 2.29 fold, the “increase of number of LT-HSCs (CD150+CD48− SLAM+)” value was found to be 2.61 fold and the “total cellularity (total cell)” value is “slight increase”.
